Patent US6835742B2, “Synergistic effect of amlodipine and atorvastatin on cholesterol crystal formation inhibition and aortic endothelial cell nitric oxide release” (priority 2000, dated 2004)

Assays:
[1] = Small angle x-ray diffraction of cholesterol-enriched reconstituted membranes (cholesterol domain formation); assay type: physicochemical; conditions: for d-space of surrounding sterol-poor membrane region: 5° C., 74% relative humidity
coronary artery disease = conditions: cited from earlier work
[2] = system: rabbit aorta endothelial cell; assay: NO release from a single rabbit aorta endothelial cell (porphyrinic sensor); assay type: cell-based; conditions: after injection of atorvastatin; 37° C.
Procedure: NO release measurements. All measurements presented were recorded in vitro. NO release was measured directly from a single endothelial cell in the rabbit aorta. Measurements were done in Hank's balance solution at 37° C. […] The sensor operated with a three-electrode system [sensor working electrode, platinum wire (0.1 mm) counter electrode, and saturated calomel electrode (SCE—reference electrode)]. The three electrodes were connected to a potentiostat/galvanostat PAR273. Data were acquired with the use of an IBM computer with custom software. […] SCE. The release of NO was initiated by the injection of potential agonists of endothelial NO synthase (eNOS) using a temtoinjector placed in the controlled distance from the endothelial cell. Two different agonists were tested: amlodipine and atorvastatin. The different concentrations of these two compounds applied simultaneously were also tested.

stable and advanced CAD = conditions: compared to angioplasty with usual medical care; cited from earlier work
[3] = 1.1:1 cholesterol to phospholipid mole ratio, 5° C. (FIG. 5)
[4] = 1.2:1 cholesterol to phospholipid mole ratio, 5° C. (FIG. 4)
[5] = 1.2:1 cholesterol to phospholipid mole ratio

SMILES | effect on cholesterol domain formation [1, 3] | effect on cholesterol domain formation [1, 4] | d-space of surrounding sterol-poor membrane region [1, 5] | progression of carotid atherosclerosis (coronary artery disease; B-mode ultrasonographic assessments) | reduction in documented angina (coronary artery disease; compared to placebo) | reduction in the need for revascularization (coronary artery disease; compared to placebo) | maximum NO concentration released [2] | reduction of overall incidence of cardiovascular events (stable and advanced CAD) | time to a first ischemic event (stable and advanced CAD) | d-space of surrounding sterol-poor membrane region ([1]; 1.1:1 cholesterol to phospholipid mole ratio) | width of cholesterol monohydrate crystalline domains ([1]; samples containing verapamil, unaffected by temperature (93% relative humidity) or relative humidity (20° C.))
CCOC(=O)C1=C(COCCN)NC(C)=C(C(=O)OC)C1c1ccccc1Cl (centres unmarked) [AML, Amlodipine besylate] | no effect on domain formation | did not interfere with domain formation | 57.8 Å | significant slowing | 33% | 42% | – | – | – | – | –
CC(C)c1c(C(=O)Nc2ccccc2)c(-c2ccccc2)c(-c2ccc(F)cc2)n1CC[C@@H](O)C[C@@H](O)CC(=O)[O-].CC(C)c1c(C(=O)Nc2ccccc2)c(-c2ccccc2)c(-c2ccc(F)cc2)n1CC[C@@H](O)C[C@@H](O)CC(=O)[O-].[Ca+2] [AT, atorvastatin calcium] | no effect on domain formation | did not interfere with domain formation | 56.8 Å | – | – | – | 20 ± 5 nmol/L | 36% | significantly delayed | 55.8 Å | –
COc1ccc(CCN(C)CCCC(C#N)(c2ccc(OC)c(OC)c2)C(C)C)cc1OC (centres unmarked) [verapamil] | – | – | – | – | – | – | – | – | – | – | 34.0 Å
